# Where two headings read alike, the source gives them in different places.
# Experiments:
# [1] = Common metabolites in rat plasma by GC-MS/MS after polyI:C and/or maoto; assay type: in vivo
# Procedure: Distilled water and saline were administered as vehicle to rats in each control group. […] Plasma cytokine levels were measured by ELISA or multiplex immunoassay; common metabolites and lipid mediators were analyzed by GC-MS/MS and LC-MS/MS, respectively.
# 1 The concentrations of TNF-α and IL-6 in plasma samples were evaluated by
# 2 ELISA (R&D Systems, Minneapolis, MN, USA). Multiplex immunoassays
# 3 (Milliplex, Merck KGaA, Darmstadt, Germany) were performed to quantify the
# 4 concentrations of IL-1β, IL-10 and INF-γ. Assays were performed according to
# 5 the manufacturer’s protocol.
# If any outliers in the data set were determined to
# 10 be due to artifacts, they were excluded from the analysis. Data are presented as
# 11 mean ± SEM. Statistical significance of the data was determined by Welch’s
# 12 t-test with Bonferroni correction. The significance level in each statistical
# 13 analysis was set at P<0.05.
# 14 Analysis of metabolites by GC-MS/MS
# 15 Plasma samples obtained at 1, 2, 6 and 20 h after treatment were used for
# 16 analysis. To extract low molecular weight metabolites for GC-MS/MS analysis, […]
# [2] = Plasma PK of major maoto compounds by LC-MS/MS after oral administration of maoto; assay type: in vivo, rat
# Procedure: 1 (7:00-19:00). Rats were maintained and used for the experiments in accordance
# 2 with the Guidelines for the Care and Use of Laboratory Animals of Tsumura &
# 3 CO. All experimental procedures were carried out upon approval from the
# 4 Laboratory Animal Committee of Tsumura & CO.
# 8 administered to 16-h fasted rats (n=3). […]
# 14 and 4 g/10mL/kg) were determined by LC-MS/MS. Based on a literature search,
# 16 amygdalin, prunasin, scopoletin, l-ephedrine, d-pseudoephedrine,
# 1 Plasma PK data were analyzed by noncompartmental modeling using
# 2 Phoenix WinNonlin (version 6.3, Certara L.P., St. Louis, MO, USA) to determine
# 3 various PK constants including Cmax, tmax, t1/2, and AUC0–last. The t1/2 was divided
# 4 by loge2/ke, where ke is the rate constant of terminal elimination (at least three
# 5 data points on the descending linear limb). […]
# [3] = PM/P (polyI:C+maoto vs polyI:C), 1h
# [4] = PM/P (polyI:C+maoto vs polyI:C), 2h
# [5] = PM/P (polyI:C+maoto vs polyI:C), 6h
# [6] = PM/P (polyI:C+maoto vs polyI:C), 20h
# [7] = Sprague-Dawley, rat, plasma, po, 1 g/kg
# [8] = Sprague-Dawley, rat, plasma, po, 1 g/kg, read-out: Cmax
# [9] = Sprague-Dawley, rat, plasma, po, 1 g/kg, read-out: Tmax
# [10] = Sprague-Dawley, rat, plasma, po, 2 g/kg
# [11] = Sprague-Dawley, rat, plasma, po, 2 g/kg, read-out: Cmax
# [12] = Sprague-Dawley, rat, plasma, po, 2 g/kg, read-out: Tmax
# [13] = Sprague-Dawley, rat, plasma, po, 4 g/kg
# [14] = Sprague-Dawley, rat, plasma, po, 4 g/kg, read-out: Cmax
# [15] = Sprague-Dawley, rat, plasma, po, 4 g/kg, read-out: Tmax
SMILES,"log2FC of plasma level ([1]; M/C (maoto vs control), 1h)","log2FC of plasma level ([1]; M/C (maoto vs control), 2h)","log2FC of plasma level ([1]; M/C (maoto vs control), 6h)","log2FC of plasma level ([1]; M/C (maoto vs control), 20h)","log2FC of plasma level ([1]; P/C (polyI:C vs control), 1h)","log2FC of plasma level ([1]; P/C (polyI:C vs control), 2h)","log2FC of plasma level ([1]; P/C (polyI:C vs control), 6h)","log2FC of plasma level ([1]; P/C (polyI:C vs control), 20h)","log2FC of plasma level [1, 3]","log2FC of plasma level [1, 4]","AUC(0-t) [2, 7] [ng·h/mL]","Cmax [2, 8] [ng/mL]","Tmax [2, 9] [h]","AUC(0-t) [2, 10] [ng·h/mL]","Cmax [2, 11] [ng/mL]","Tmax [2, 12] [h]","AUC(0-t) [2, 13] [ng·h/mL]","half-life [2, 13] [h]","Cmax [2, 14] [ng/mL]","Tmax [2, 15] [h]",also measured
NCC(=O)O [Glycine],-0.06,-0.10,-0.14,-0.06,-0.03,-0.01,-0.02,-0.30,-0.12,-0.42,–,–,–,–,–,–,–,–,–,–,"log2FC of plasma level [1, 5]: -0.02; log2FC of plasma level [1, 6]: 0.0873"
O=C(O)Cc1cc(O)ccc1O [Homogentisic acid],0.60,-0.05,0.23,0.79,-0.05,0.24,0.10,0.75,0.68,-0.76,–,–,–,–,–,–,–,–,–,–,"log2FC of plasma level [1, 5]: -0.18; log2FC of plasma level [1, 6]: 0.0612"
O=C(/C=C/c1ccc(O[C@@H]2O[C@H](CO)[C@@H](O)[C@H](O)[C@H]2O)cc1)c1ccc(O)cc1O [Isoliquiritin],–,–,–,–,–,–,–,–,–,–,2.09,1.6,0.25,6.03,3.6,1,12.6,3.14,8.71,0.25,"half-life [2, 7]: 2.3 h"
O=C1C[C@@H](c2ccc(O)cc2)Oc2cc(O)ccc21 [Liquiritigenin],–,–,–,–,–,–,–,–,–,–,–,–,–,–,–,–,–,–,–,–,"AUClast ([2]; rat plasma, oral maoto 1 g/kg): 17.4 ng·h/mL; Cmax ([2]; rat plasma, oral maoto 1 g/kg): 18.0 ng/mL; Tmax ([2]; rat plasma, oral maoto 1 g/kg): 0.250 h; AUClast ([2]; rat plasma, oral maoto 2 g/kg): 35.0 ng·h/mL; Cmax ([2]; rat plasma, oral maoto 2 g/kg): 15.1 ng/mL; Tmax ([2]; rat plasma, oral maoto 2 g/kg): 1.00 h; AUClast ([2]; rat plasma, oral maoto 4 g/kg): 84.4 ng·h/mL; Cmax ([2]; rat plasma, oral maoto 4 g/kg): 16.1 ng/mL; Tmax ([2]; rat plasma, oral maoto 4 g/kg): 0.250 h"
O=C1C[C@@H](c2ccc(O[C@@H]3O[C@H](CO)[C@@H](O)[C@H](O)[C@H]3O)cc2)Oc2cc(O)ccc21 [Liquiritin],–,–,–,–,–,–,–,–,–,–,8.9,3.04,0.25,22.4,7.23,1,61.4,4.34,71.7,0.25,"half-life [2, 7]: 1.95 h; half-life [2, 10]: 2.23 h"
Oc1cc(O)c2c(c1)O[C@H](c1ccc(O)c(O)c1)[C@H](O)[C@H]2c1c(O)cc(O)c2c1O[C@H](c1ccc(O)c(O)c1)[C@H](O)C2 [Procyanidin B2],–,–,–,–,–,–,–,–,–,–,–,–,–,0.172,0.687,1,2.06,–,4.64,0.25,"AUClast ([2]; rat plasma, oral maoto 1 g/kg): BQL; Cmax ([2]; rat plasma, oral maoto 1 g/kg): BQL"
Oc1cc(O)c2c(c1)O[C@H](c1ccc(O)c(O)c1)[C@H](O)[C@H]2c1c(O)cc(O)c2c1O[C@H](c1ccc(O)c(O)c1)[C@H](O)[C@H]2c1c(O)cc(O)c2c1O[C@H](c1ccc(O)c(O)c1)[C@H](O)C2 [Procyanidin C1],–,–,–,–,–,–,–,–,–,–,–,–,–,–,–,–,1.69,–,3.9,0.25,"detection in rat plasma by targeted LC-MS/MS ([2]; oral maoto 2 g/kg): not detected; AUClast ([2]; rat plasma, oral maoto 1 g/kg): BQL; Cmax ([2]; rat plasma, oral maoto 1 g/kg): BQL; AUClast ([2]; rat plasma, oral maoto 2 g/kg): BQL; Cmax ([2]; rat plasma, oral maoto 2 g/kg): BQL"
N#C[C@H](O[C@@H]1O[C@H](CO)[C@@H](O)[C@H](O)[C@H]1O)c1ccccc1 [Prunasin],–,–,–,–,–,–,–,–,–,–,5520,2020,0.5,11900,2240,0.5,32000,3.21,3250,2,"half-life [2, 7]: 0.891 h; half-life [2, 10]: 2.45 h"
O=C[C@H](O)[C@H](O)[C@H](O)CO [Ribose],0.41,0.05,-0.22,0.16,1.05,0.63,-0.22,-0.34,-1.38,-0.72,–,–,–,–,–,–,–,–,–,–,"log2FC of plasma level [1, 5]: -0.21; log2FC of plasma level [1, 6]: 0.2160"
O=C(CO)C(O)C(O)CO (centres unmarked) [Ribulose],0.30,0.01,0.06,0.08,0.24,0.14,0.10,-0.04,-0.26,-0.26,–,–,–,–,–,–,–,–,–,–,"log2FC of plasma level [1, 5]: 0.02; log2FC of plasma level [1, 6]: 0.0374"
COc1cc2ccc(=O)oc2cc1O [Scopoletin],–,–,–,–,–,–,–,–,–,–,0.07,0.216,0.25,0.428,0.425,0.25,0.591,5.44,0.237,0.25,"half-life [2, 10]: 2.39 h"
NC(N)=O [Urea],0.05,-0.01,-0.09,-0.07,-0.01,0.02,-0.05,0.03,-0.02,-0.03,–,–,–,–,–,–,–,–,–,–,"log2FC of plasma level [1, 5]: -0.13; log2FC of plasma level [1, 6]: 0.0096"
"CN[C@@H](C)[C@@H](O)c1ccccc1 [d-Pseudoephedrine, d-pseudoephedrine]",–,–,–,–,–,–,–,–,–,–,183,136,0.25,559,163,0.25,1180,3.86,253,0.25,"half-life [2, 7]: 5.82 h; half-life [2, 10]: 6.58 h"
"CN[C@@H](C)[C@H](O)c1ccccc1 [l-Ephedrine, l-ephedrine]",–,–,–,–,–,–,–,–,–,–,730,311,0.25,1560,377,1,2850,4.19,545,0.25,"half-life [2, 7]: 1.35 h; half-life [2, 10]: 1.44 h"

# — PMC5654968 (NPJ Systems Biology and Applications, 2017)
